Measurements reported in paper PMC8198043, “Tetracyclic Thioxanthene Derivatives: Studies on Fluorescence and Antitumor Activity” (Molecules, 2021).

Key:
[1] = tested on: myeloid leukemia K562 cell line (doxorubicin-sensitive); set-up: method as in PMID 26771595; conditions: previous results by the group; cited from earlier work
[2] = tested on: myeloid leukemia K562 cell line (doxorubicin-resistant); set-up: method as in PMID 26771595; conditions: previous results by the group; cited from earlier work
A375-C5 (melanoma) = experiment: SRB cell growth inhibition assay, A375-C5; assay type: cell-based, human; conditions: for GI50: Homo sapiens, A375-C5, SRB assay, continuous exposure for 48 h, mean ± SD, at least three independent experiments, read-out: Antitumor Activity (GI50) A375-C5; for Selectivity Index A375-C5: ratio of GI50 in non-tumor HPAEpiC cells over GI50 in A375-C5
Procedure: (§1) To evaluate the biological activity of compounds 11–14, three human tumor cell lines (European Collection of Cell Culture, Salisbury, Wiltshire, UK) were used: A375-C5 (melanoma), MCF-7 (breast adenocarcinoma) and NCI-H460 (non-small cell lung cancer). Cells were grown in RPMI-1640 culture medium (Biochrom, Berlin, Germany) supplemented with 5% heat-inactivated fetal bovine serum (FBS, Biochrom) and maintained in a humidified incubator at 37 °C with 5% CO2 (Hera Cell, Heraeus).
(§2) The antitumor activity of compounds was accessed through the determination of the GI50 by the sulforhodamine B assay (SRB, Sigma-Aldrich). Tumor cells were seeded in 96-well plates (0.05 × 10^6 cells/well) in complete culture medium and incubated at 37 °C for 24 h, allowing cell attachment. Cells were then incubated with two-fold serial dilutions of the test compounds, with concentrations ranging from 0 to 75 μM. Dimethyl sulfoxide-treated cells (DMSO), up to 0.25% concentration, were included as compounds solvent control. Forty-eight hours later, cells were fixed with 50% (m/v) trichloroacetic acid (Merck Millipore, Darmstadt, Germany), washed with distilled water and stained with SRB for 30 min at room temperature. The SRB-stained cells were washed 5 times with 1% (v/v) acetic acid (Merck Millipore) and afterwards dried at RT; SRB complexes were solubilized by adding 10 mM Tris-Base buffer (Sigma-Aldrich) for 30 min. Absorbance was measured at 515 nm in a microplate reader (BioTek Synergy 2, BioTek Instruments Inc., Winooski, VT, USA).The concentration that caused cell growth inhibition of 50% (GI50) was determined based on a dose–response curve obtained for each cell line with each test compound.

[3] = tested on: MCF-7 (breast adenocarcinoma); experiment: SRB cell growth inhibition assay, MCF-7; assay type: cell-based, human; conditions: for GI50: Homo sapiens, MCF7, SRB assay, continuous exposure for 48 h, mean ± SD, at least three independent experiments, read-out: Antitumor Activity (GI50) MCF-7; for Selectivity Index MCF-7: ratio of GI50 in non-tumor HPAEpiC cells over GI50 in MCF-7
Procedure: as §1, §2

[4] = tested on: NCI-H460 (non-small cell lung cancer); experiment: SRB cell growth inhibition assay, NCI-H460; assay type: cell-based, human; conditions: for GI50: Homo sapiens, NCI-H460, SRB assay, continuous exposure for 48 h, mean ± SD, at least three independent experiments, read-out: Antitumor Activity (GI50) NCI-H460; for Selectivity Index NCI-H460: ratio of GI50 in non-tumor HPAEpiC cells over GI50 in NCI-H460
Procedure: as §1, §2

[5] = tested on: Human Pulmonary Alveolar Epithelial Cells (HPAEpiC); experiment: Cell toxicity in non-tumor cells (GI50); assay type: cell-based; conditions: mean ± SD of three independent experiments
Procedure: as §2
The non-tumor Human Pulmonary Alveolar Epithelial Cells (HPAEpiC) were used to assess the degree of selectivity of the compounds, as the ratio of GI50 in non-tumor cells over GI50 in cancer cells. A selectivity index value less than 2.0 indicates the general toxicity of the compound [32].

[6] = tested on: A375-C5, MCF-7 and NCI-H460; experiment: SRB cell growth inhibition, span over the three tumor cell lines; assay type: cell-based; conditions: Homo sapiens; A375-C5, MCF-7 and NCI-H460 taken together; read-out: GI50, range over the tested cell lines
Procedure: as §1
The antitumor activity of compounds was accessed through the determination of the GI50 by the sulforhodamine B assay (SRB, Sigma-Aldrich). Tumor cells were seeded in 96-well plates (0.05 × 10^6 cells/well) in complete culture medium and incubated at 37 °C for 24 h, allowing cell attachment. Cells were then incubated with two-fold serial dilutions of the test compounds, with concentrations ranging from 0 to 75 μM. Dimethyl sulfoxide-treated cells (DMSO), up to 0.25% concentration, were included as compounds solvent control. Forty-eight hours later, cells were fixed with 50% (m/v) trichloroacetic acid (Merck Millipore, Darmstadt, Germany), washed with distilled water and stained with SRB for 30 min at room temperature. […]

[7] = Photophysical studies (absorption and emission in DMSO); assay type: physicochemical; conditions: for λmax: absorption; for λem: emission; for ΦF: fluorescence quantum yield, by comparison with fluorescein (φf = 90%); for log ε: molar absorption coefficient
Procedure: The absorption spectra in dimethyl sulfoxide solutions were obtained on a Shimadzu UV-2501 PC spectrophotometer (1 cm path length quartz cell) and the emission spectra were recorded on a JASCO spectrofluorometer. Molar absorption coefficients were determined using 4 measurements in the concentration range 10^−3–10^−6 mol.L^−1. Fluorescence quantum yields were determined by comparison with fluorescein in 0.1 M NaOH water solution as a fluorescence standard (φf = 90%).

Compound | GI50 (A375-C5 (melanoma)) [µM] | GI50 [3] [µM] | GI50 [4] [µM] | GI50 [6] [µM] | Stokes’ Shift [7] [nm] | λmax [7] [nm] | λem [7] [nm] | ΦF [7] [%] | log ε [7] | GI50 [1] [µM] | GI50 [2] [µM] | Selectivity Index A375-C5 (A375-C5 (melanoma)) | Selectivity Index MCF-7 [3] | Selectivity Index NCI-H460 [4] | GI50 [5] [µM]
CCCOc1ccc(NCCN(CC)CC)c2c(=O)c3ccccc3sc12 [Compound 4] |  |  |  |  |  |  |  |  |  | 1.9 | 1.9 |  |  |  | 
CCCOc1ccc2ncnc3c2c1Sc1ccccc1-3 [Compound 12, 6-Propoxythiochromeno[4,3,2-de]quinazoline] | 38.8 ± 5.93 | 33.8 ± 1.61 | 31.2 ± 1.53 |  | 89 | 394 | 483 | 50.7 | 3.72 |  |  | 1.01 | 1.16 | 1.26 | 39.28 ± 0.25

The next lines start with results.

GI50 (A375-C5 (melanoma)) [µM] | GI50 [3] [µM] | GI50 [4] [µM] | GI50 [6] [µM] | Stokes’ Shift [7] [nm] | λmax [7] [nm] | λem [7] [nm] | ΦF [7] [%] | log ε [7] | Compound | GI50 [1] [µM] | GI50 [2] [µM] | Selectivity Index A375-C5 (A375-C5 (melanoma)) | Selectivity Index MCF-7 [3] | Selectivity Index NCI-H460 [4] | GI50 [5] [µM]
6.48 ± 0.88 | 6.39 ± 0.49 | 5.66 ± 0.89 | 5 to 7 | 92 | 456 | 548 | 29.0 | 3.67 | CCCOc1ccc2nc(N)nc3c2c1Sc1ccccc1-3 [Compound 11, 6-Propoxythiochromeno[4,3,2-de]quinazolin-2-amine] |  |  | 4.13 | 4.19 | 4.73 | 26.8 ± 1.2
22.9 ± 3.75 | 18.9 ± 1.42 | 17 ± 3.12 |  | 91 | 457 | 548 | 31.3 | 3.72 | CCCOc1ccc2nc(NCc3ccccc3Cl)nc3c2c1Sc1ccccc1-3 [Compound 13, N-(2-Chlorobenzyl)-6-propoxythiochromeno[4,3,2-de]quinazolin-2-amine] |  |  | 5.59 | 6.79 | 7.54 | 128 ± 1.56
8.02 ± 3.59 | 9.04 ± 0.89 | 10.6 ± 0.31 | 8 to 11 | 80 | 480 | 560 | <0.1 | 4.00 | CCCOc1ccc2c3c(n/c(=N/c4ccccc4C)n2-c2ccccc2C)-c2ccccc2Sc13 [Compound 14, (E)-6-Propoxy-N,3-di-o-tolylthiochromeno[4,3,2-de]quinazolin-2(3H)-imine] |  |  |  |  |  | > 150
0.016 ± 0.005 | 0.018 ± 0.003 | 0.024 ± 0.006 |  |  |  |  |  |  | COc1cccc2c1C(=O)c1c(O)c3c(c(O)c1C2=O)C[C@@](O)(C(=O)CO)C[C@@H]3O[C@H]1C[C@H](N)[C@H](O)[C@H](C)O1 [Doxorubicin, reference compound] |  |  | 3.38 | 3.00 | 2.25 | 0.054 ± 0.005
